# Values of other authors as cited in EP4420767A1, “MODULAR GREEN SOLVENT COMPOSITION FOR PREPARING POLYMERIC MEMBRANES” (Soft Chemicals S.r.l., priority 2023, dated 2024).
# Conditions: DMSO alone
compound,measurement,value
"C[S+](C)[O-] [DMSO, Dimethyl sulfoxide]",freezing point,18 °C
